Results as given in patent US20260107957A1, “USE OF AN EMULSIFIER DERIVED FROM RICINOLEIC ACID TO INCREASE THE ABSORPTION OF CALCIUM AND PHOSPHORUS IN THE DIGESTIVE TRACT OF FARM ANIMALS” (priority 2023, published 2026).

System: laying hens
Assay: Assessment of shell quality in laying hen farms
Type: in vivo
Details: egg production
Method: In order to assess the effect of the use of the nutritional supplement on the calcium and phosphorus absorption in laying hens, several studies on laying hens from different farms were carried out. The studies comprised the analysis of animals before and after the feed with the formulation containing the nutritional supplement comprising ingredients shown in Table 3.
More specifically, an assessment of the shell quality in laying hens was conducted by collecting the eggs before and after feeding the animals with the formulation containing the nutritional supplement. Hens from farms in the states of Espírito Santo (350,000 hens), São Paulo (2,000,000 hens), Paraná (1,100,000 hens), and Minas Gerais ([…]) were fed with a pair of feed formulas, one without and another one with the nutritional supplement of the present invention.
Laid eggs were collected after feeding the hens with regular feed and later with the feed containing the emulsifier of the present invention. Data obtained from the analysis of the eggs from the farms in Espírito Santo, São Paulo, Paraná, and Minas Gerais are included in Tables 6 to 9 below, the beneficial effects on the shells being emphasized thereof, among them the reduction in cracks in chicken eggs.

For CCCCCC[C@@H](O)C/C=C\CCCCCCCC(=O)[O-].[Na+] [emulsifier derived from ricinoleic acid, Sodium Ricinolate], the “increase of the amount of saleable eggs” value was “up to 5%” and the “eggs produced daily lost by shell problems” value (usual loss up to 7%) was “below 2%”.
